Experimental data as given in patent publication US20210353706A1, “INHIBITION OF ENDOGENOUS REVERSE TRANSCRIPTASE AND TARGETING OF CELLS FOR PROPHYLAXIS AND THERAPY OF CANCER AND AGING” (Health Research, Inc., priority 2017, published 2021).

Tests used:
[1] = test system: LINE1 elements; test: LINE1 retrotransposition assay (neo-resistant colonies after reporter plasmid transfection); format: cell-based; settings: HeLa cells transfected with reporter plasmid
Procedure: FIG. 2 depicts a work-flow for a LINE1 retrotransposition assay as described in Moran et al. Cell 1996 87(5):917-27 (shown in box to the left).
Retrotransposition assay was performed according to Moran et al. Cell. 1996 87(5):917-27 (scheme shown to the left). HeLa cells were transfected with the reporter plasmid; appearance of neo-resistant colonies is indicative of retrotransposition events. […] It is accordingly expected that other RT inhibitors will have similar utility.

[2] = test system: HeLa cells; test: Clonogenicity of HeLa cells; format: cell-based; settings: indicated concentrations of stavudine
[3] = test system: colorectal cancer cells HCT116; test: Acquisition of PALA-resistant colonies (CAD gene amplification); format: cell-based, human; settings: for number of PALA resistant colonies: HCT116 grown in presence of indicated non-toxic concentrations of RT inhibitor
Source text: Gene amplification can be assessed by measuring the frequency of occurrence of cell variants resistant to N-phosphonoacetyl-L-aspartate (PALA), a small molecule inhibitor of aspartate transcarbamylase of CAD protein essential for UMP biosynthesis. In human cells, PALA resistance is associated almost solely with CAD overexpression due to amplification of the CAD gene. Therefore, this can serve as a quantitative indicator of gene amplification. Usually undetectable in normal cells, gene amplification frequency can be as high as 10-5 in tumor cells. The finding that p53 inactivation and DNA demethylation by decitabine both greatly increase the frequency of gene amplification support the possibility of involvement of retroelements (which are inhibited at the epigenetic level by p53 and DNA methylation) in this process.
Right panel illustrates the data shown in the graph as images of tissue culture plates treated and untreated with RT inhibitors in the presence and in the absence of PALA. Sensitivity of HCT116 cells to RT inhibitors alone were determined using quantitation of adherent cells following 72 hours of incubation in the presence of a range of concentrations of RT inhibitors (curves in the graph with the scale of cell viability shown on the right).

[4] = test system: Th-MYCN transgenic mice (spontaneous neuroblastomas); test: Tumor relapse after chemotherapy in mouse spontaneous neuroblastoma model; format: in vivo
Source text: In particular, 100% of Th-MYCN transgenic mice (strain 129X1/SvJ-Tg(TH-MYCN)41Waw/Nci) homozygous for MYCN transgene develop spontaneous neuroblastomas in their abdomens around 30 days of age. Mice carrying this transgene show many of the features of the human childhood disease including sensitivity to conventional treatments. Indicated treatments were started at the times of first appearance of palpable tumors.

Compound: Cc1cn([C@H]2C=C[C@@H](CO)O2)c(=O)[nH]c1=O [stavudine]
- concentrations at which stavudine is effective in inhibiting LINE1 retrotransposition [1]: above 5 mM
- effect on clonogenicity of HeLa cells [2]: lack of effect
- number of PALA resistant colonies [3]: greatly decreased
- number of PALA resistant colonies ([3]; listed as STV): dramatically reduces
- frequency of gene amplification in vitro ([3]; tumor cells in vitro): greatly reduced
- antitumor effect of stavudine alone ([4]; 1.5 mg/ml in drinking water, no chemotherapy): no detectable antitumor effect
- extension of average tumor-free survival ([4]; continuous stavudine 1.5 mg/ml in drinking water with cyclophosphamide and topotecan): nearly two-fold
- proportion of disease free animals with no relapses detected within >100 days of observation ([4]; continuous stavudine with cyclophosphamide and topotecan): significantly increased
